Assays:
human orexin-2 receptor = target: T1, human orexin-2 receptor (Homo sapiens, UniProt O43614); experiment: Intracellular calcium measurements (FLIPR), orexin receptor antagonistic activity, OX2; format: cell-based; settings: CHO cells expressing the human orexin-2 receptor, 10 nM orexin-A as agonist
T1 construct: expressed in transfected cells; host or cells: CHO (Chinese hamster ovary) cells, G418 selection
T1 sequence (O43614 1-444): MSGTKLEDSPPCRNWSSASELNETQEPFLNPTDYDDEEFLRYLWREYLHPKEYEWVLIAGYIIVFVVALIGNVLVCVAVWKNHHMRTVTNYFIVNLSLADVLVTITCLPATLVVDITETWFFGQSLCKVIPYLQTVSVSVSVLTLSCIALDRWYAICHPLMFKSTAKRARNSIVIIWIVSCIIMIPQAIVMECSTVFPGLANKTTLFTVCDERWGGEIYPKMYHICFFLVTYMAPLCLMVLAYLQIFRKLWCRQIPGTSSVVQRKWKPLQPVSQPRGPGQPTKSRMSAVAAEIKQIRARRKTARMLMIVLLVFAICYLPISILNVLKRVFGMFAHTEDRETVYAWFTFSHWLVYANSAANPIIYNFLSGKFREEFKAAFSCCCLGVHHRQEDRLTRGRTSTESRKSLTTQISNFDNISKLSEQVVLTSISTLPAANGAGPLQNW
Procedure: (§1) The orexin receptor antagonistic activity of the compounds of formula (I) is determined in accordance with the following experimental method.
(§2) Intracellular Calcium Measurements:
(§3) Chinese hamster ovary (CHO) cells expressing the human orexin-1 receptor and the human orexin-2 receptor, respectively, are grown in culture medium (Ham F-12 with L-Glutamine) containing 300 μg/ml G418, 100 U/ml penicillin, 100 μg/ml streptomycin and 10% inactivated fetal calf serum (FCS). The cells are seeded at 80′000 cells/well into 96-well black clear bottom sterile plates (Costar) which have been precoated with 1% gelatine in Hanks' Balanced Salt Solution (HBSS). All reagents are from Gibco BRL. The seeded plates are incubated overnight at 37° C. in 5% CO2.
(§4) Human orexin-A as an agonist is prepared as 1 mM stock solution in MeOH:water (1:1), diluted in HBSS containing 0.1% bovine serum albumin (BSA) and 2 mM HEPES for use in the assay at a final concentration of 10 nM.
(§5) Antagonists are prepared as 10 mM stock solution in DMSO, then diluted in 96-well plates, first in DMSO, then in HBSS containing 0.1% bovine serum albumin (BSA) and 2 mM HEPES.
(§6) On the day of the assay, 100 μl of loading medium (HBSS containing 1% FCS, 2 mM HEPES, 5 mM probenecid (Sigma) and 3 μM of the fluorescent calcium indicator fluo-3 AM (1 mM stock solution in DMSO with 10% pluronic acid) (Molecular Probes) is added to each well.
(§7) The 96-well plates are incubated for 60 min at 37° C. in 5% CO2. The loading solution is then aspirated and cells are washed 3 times with 200 μl HBSS containing 2.5 mM probenecid, 0.1% BSA, 2 mM HEPES. 100 μl of that same buffer is left in each well.
(§8) Within the Fluorescent Imaging Plate Reader (FLIPR, Molecular Devices), antagonists are added to the plate in a volume of 50 μl, incubated for 20 min and finally 100 μl of agonist is added. Fluorescence is measured for each well at 1 second intervals, and the height of each fluorescence peak is compared to the height of the fluorescence peak induced by 10 nM orexin-A with buffer in place of antagonist. For each antagonist, IC50 value (the concentration of compound needed to inhibit 50% of the agonistic response) is determined.

human orexin-1 receptor = target: T2, human orexin-1 receptor (Homo sapiens, UniProt O43613); experiment: Intracellular calcium measurements (FLIPR), orexin receptor antagonistic activity, OX1; format: cell-based; settings: CHO cells expressing the human orexin-1 receptor, 10 nM orexin-A as agonist
T2 construct: expressed in transfected cells; host or cells: CHO (Chinese hamster ovary) cells, G418 selection
T2 sequence (O43613 1-425): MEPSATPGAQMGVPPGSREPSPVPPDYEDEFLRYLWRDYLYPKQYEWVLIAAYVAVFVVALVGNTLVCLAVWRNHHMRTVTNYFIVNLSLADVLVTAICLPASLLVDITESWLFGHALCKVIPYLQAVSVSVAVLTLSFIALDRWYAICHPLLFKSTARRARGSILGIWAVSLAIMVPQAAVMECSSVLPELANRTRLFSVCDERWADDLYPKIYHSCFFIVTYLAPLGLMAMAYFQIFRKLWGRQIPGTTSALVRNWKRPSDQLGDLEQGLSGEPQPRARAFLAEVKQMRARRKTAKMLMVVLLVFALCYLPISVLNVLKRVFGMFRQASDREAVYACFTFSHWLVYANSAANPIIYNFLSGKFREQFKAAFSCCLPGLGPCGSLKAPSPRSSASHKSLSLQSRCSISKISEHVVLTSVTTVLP
Procedure: as §1, §2, §3, §4, §5, §6, §7, §8

Structure (SMILES) | IC50 (human orexin-2 receptor) [nM] | IC50 (human orexin-1 receptor) [nM]
O=C(NC[C@@H]1C[C@@H]2C[C@@H]2N1C(=O)c1ncsc1-c1cccc(Cl)c1)c1cccc2c1CCO2 [Example 212, 2,3-Dihydro-benzofuran-4-carboxylic acid {(1S,3S,5S)-2-[5-(3-chloro-phenyl)-thiazole-4-carbonyl]-2-aza-bicyclo[3.1.0]hex-3-ylmethyl}-amide] | 102 | 109
Cc1nc(C(=O)N2[C@H](CNC(=O)c3cccc4cccnc34)C[C@@H]3C[C@@H]32)c(-c2ccccc2)s1 [Example 230, Quinoline-8-carboxylic acid [(1S,3S,5S)-2-(2-methyl-5-phenyl-thiazole-4-carbonyl)-2-aza-bicyclo[3.1.0]hex-3-ylmethyl]-amide] | 100 | 13
O=C(NC[C@@H]1C[C@@H]2C[C@@H]2N1C(=O)c1ncsc1-c1cccc(Cl)c1)c1cccc2cccnc12 [Example 235, Quinoline-8-carboxylic acid {(1S,3S,5S)-2-[5-(3-chloro-phenyl)-thiazole-4-carbonyl]-2-aza-bicyclo[3.1.0]hex-3-ylmethyl}-amide] | 452 | 88
Cc1nc2sccn2c1C(=O)NC[C@@H]1C[C@@H]2C[C@@H]2N1C(=O)c1nc(N(C)C)sc1-c1ccccc1 [Example 246, 6-Methyl-imidazo[2,1-b]thiazole-5-carboxylic acid [(1S,3S,5S)-2-(2-dimethylamino-5-phenyl-thiazole-4-carbonyl)-2-aza-bicyclo[3.1.0]hex-3-ylmethyl]-amide] | 44 | 20
Cc1cc(C)cc(-c2sc(C)nc2C(=O)N2[C@H](CNc3ncc(Br)cn3)C[C@@H]3C[C@@H]32)c1 [Example 255, {(1S,3S,5S)-3-[(5-Bromo-pyrimidin-2-ylamino)-methyl]-2-aza-bicyclo[3.1.0]hex-2-yl}-[5-(3,5-dimethyl-phenyl)-2-methyl-thiazol-4-yl]-methanone] | 291 | 37

Further lines, results first:

IC50 (human orexin-2 receptor) [nM] | IC50 (human orexin-1 receptor) [nM] | Structure (SMILES)
145 | 62 | Cc1nc(C(=O)N2[C@H](CNc3ncc(Br)cn3)C[C@@H]3C[C@@H]32)c(-c2ccc(F)c(F)c2)s1 [Example 259, {(1S,3S,5S)-3-[(5-Bromo-pyrimidin-2-ylamino)-methyl]-2-aza-bicyclo[3.1.0]hex-2-yl}-[5-(3,4-difluoro-phenyl)-2-methyl-thiazol-4-yl]-methanone]
68 | 131 | O=C(c1nc(C2CC2)sc1-c1ccccc1)N1[C@H](CNc2ncc(Br)cn2)C[C@@H]2C[C@@H]21 [Example 265, {(1S,3S,5S)-3-[(5-Bromo-pyrimidin-2-ylamino)-methyl]-2-aza-bicyclo[3.1.0]hex-2-yl}-(2-cyclopropyl-5-phenyl-thiazol-4-yl)-methanone]
98 | 110 | Cc1cccc(-c2sc(C)nc2C(=O)N2[C@H](CNc3nccc(C(F)(F)F)n3)C[C@@H]3C[C@@H]32)c1 [Example 274, (2-Methyl-5-m-tolyl-thiazol-4-yl)-{(1S,3S,5S)-3-[(4-trifluoromethyl-pyrimidin-2-ylamino)-methyl]-2-aza-bicyclo[3.1.0]hex-2-yl}-methanone]
154 | 42 | CCc1cnc(NC[C@@H]2C[C@@H]3C[C@@H]3N2C(=O)c2nc(C)sc2-c2cccc(C)c2)nc1 [Example 277, {(1S,3S,5S)-3-[(5-Ethyl-pyrimidin-2-ylamino)-methyl]-2-aza-bicyclo[3.1.0]hex-2-yl}-(2-methyl-5-m-tolyl-thiazol-4-yl)-methanone]
